The results in this text go back to article PMC3674352 (Cell Death & Disease, 2013).

Common to all, as to format: cell-based
Experiment [1] deals with T1, Bcl-xL (Homo sapiens, UniProt Q07817). In words: growth and ATP content of yeast co-expressing Bax and Bcl-xL.
Experiment [2] deals with T1, Bcl-xL. In words: growth of yeast co-expressing Bax and Bcl-xL.
Another experiment concerns the target Bcl-2 (Homo sapiens, UniProt P10415). Put plainly: growth of yeast co-expressing Bax and Bcl-2.

T1 sequence (Q07812 whole entry): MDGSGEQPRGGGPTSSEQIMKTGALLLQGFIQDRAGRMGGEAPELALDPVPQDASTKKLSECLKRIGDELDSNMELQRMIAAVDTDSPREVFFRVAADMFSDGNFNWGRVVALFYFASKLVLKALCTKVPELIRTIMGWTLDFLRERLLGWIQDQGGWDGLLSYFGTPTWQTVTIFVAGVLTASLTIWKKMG
T1 sequence (Q07817 whole entry): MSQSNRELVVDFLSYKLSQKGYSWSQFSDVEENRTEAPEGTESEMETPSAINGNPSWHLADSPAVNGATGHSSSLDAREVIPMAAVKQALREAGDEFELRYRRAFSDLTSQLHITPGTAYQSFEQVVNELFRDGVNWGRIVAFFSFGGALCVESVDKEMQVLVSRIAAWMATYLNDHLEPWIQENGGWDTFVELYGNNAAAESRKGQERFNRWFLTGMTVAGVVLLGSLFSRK
Bcl-2, sequence (Q07812 whole entry): as the sequence (Q07812 whole entry) above
Bcl-2, sequence (P10415 whole entry): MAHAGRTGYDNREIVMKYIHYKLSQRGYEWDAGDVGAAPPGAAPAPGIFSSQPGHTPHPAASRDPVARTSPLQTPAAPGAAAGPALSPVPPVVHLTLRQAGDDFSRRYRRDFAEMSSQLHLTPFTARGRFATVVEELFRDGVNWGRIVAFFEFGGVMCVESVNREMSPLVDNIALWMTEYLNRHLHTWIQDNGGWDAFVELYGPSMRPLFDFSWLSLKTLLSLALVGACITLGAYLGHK

For `CN(C)CC[C@H](CSc1ccccc1)Nc1ccc(S(=O)(=O)NC(=O)c2ccc(N3CCN(Cc4ccccc4-c4ccc(Cl)cc4)CC3)cc2)cc1[N+](=O)[O-]` [ABT-737], at Bcl-xL [1], the IC50 entry is given as “~ just under 1 μM”.
In the case of `CC1(C)CCC(c2ccc(Cl)cc2)=C(CN2CCN(c3ccc(C(=O)NS(=O)(=O)c4ccc(N[C@H](CCN5CCOCC5)CSc5ccccc5)c(S(=O)(=O)C(F)(F)F)c4)cc3)CC2)C1` [ABT-263], the IC50 entry is “~ just under 1 μM” against Bcl-xL [2] and “~ just over 1 μM” against Bcl-2.
